PubChem BioAssay AID330 (DTP/NCI, 2004)
Several values for one entry are separate records, joined by “and”; a condition that tells them apart may be missing. Equal entries are not always repeated. Inconclusive results and toxic doses are left out. How the source made its calls: active means survival T/C of 150% or more; inactive means T/C below 125% in these data.

Test system: P388 leukemia ip, CD2F1 mice, survival T/C
Assay: NCI In Vivo Anticancer Drug Screen. Data for tumor model P388 Leukemia (intraperitoneal) in CD2F1 (CDF1) mice
Settings: endpoint: median survival time, higher = longer survival
Method in brief: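 Mice carrying the transplanted tumor received test compound or vehicle. Survival was recorded in each group, and the value is the treated-group measurement divided by that of the vehicle-treated control group.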

[1] = dose: 12.5 mg/kg/injection, schedule: Q01DX009 (ip), vehicle: saline
[2] = dose: 25.0 mg/kg/injection, schedule: Q01DX009 (ip), vehicle: saline
[3] = dose: 50.0 mg/kg/injection, schedule: Q01DX009 (ip), vehicle: saline
[4] = dose: 50.0 mg/kg/injection, schedule: Q01DX005 (ip), vehicle: Klucel (hydroxypropylcellulose) (HPC)
[5] = dose: 100.0 mg/kg/injection, schedule: Q01DX005 (ip), vehicle: Klucel (hydroxypropylcellulose) (HPC)
[6] = dose: 200.0 mg/kg/injection, schedule: Q01DX005 (ip), vehicle: Klucel (hydroxypropylcellulose) (HPC)
[7] = dose: 6.25 mg/kg/injection, schedule: Q01DX009 (ip), vehicle: saline with Tween-80
[8] = dose: 12.5 mg/kg/injection, schedule: Q01DX009 (ip), vehicle: saline with Tween-80
[9] = dose: 25.0 mg/kg/injection, schedule: Q01DX009 (ip), vehicle: saline with Tween-80
[10] = dose: 25.0 mg/kg/injection, schedule: Q01DX005 (ip), vehicle: Klucel (hydroxypropylcellulose) (HPC)
[11] = dose: 50.0 mg/kg/injection, schedule: Q01DX005 (ip), vehicle: saline with Tween-80
[12] = dose: 100.0 mg/kg/injection, schedule: Q01DX005 (ip), vehicle: saline with Tween-80
[13] = dose: 200.0 mg/kg/injection, schedule: Q01DX005 (ip), vehicle: saline with Tween-80
[14] = dose: 100.0 mg/kg/injection, schedule: Q04DX003 (ip), vehicle: saline
[15] = dose: 400.0 mg/kg/injection, schedule: Q04DX003 (ip), vehicle: saline
[16] = dose: 60.0 mg/kg/injection, schedule: Q01DX005 (ip), vehicle: saline with Tween-80
[17] = dose: 120.0 mg/kg/injection, schedule: Q01DX005 (ip), vehicle: saline with Tween-80
[18] = dose: 240.0 mg/kg/injection, schedule: Q01DX005 (ip), vehicle: saline with Tween-80

Measured: T/C

Cc1cc2[nH]c3ccccc3n2c(=O)c1N=Nc1ccccc1
inactive: dose: 87.5 mg/kg/injection, schedule: Q04DX002 (ip), vehicle: Klucel (hydroxypropylcellulose) (HPC) 101 % of control | dose: 175.0 mg/kg/injection, schedule: Q04DX002 (ip), vehicle: Klucel (hydroxypropylcellulose) (HPC) 92 % of control | dose: 350.0 mg/kg/injection, schedule: Q04DX002 (ip), vehicle: Klucel (hydroxypropylcellulose) (HPC) 99 % of control

O=[N+]([O-])c1ccc(C2CC(c3ccccc3)=Nc3ccccc3S2)cc1 (stereo not drawn)
inactive: [1] 97 % of control | [2] 92 % of control | [3] 97 % of control

COC(=O)C1=C/C=C\CN(/C=C/c2ccccc2)/C=C\1C(=O)OC
inactive: dose: 100.0 mg/kg/injection, schedule: Q04DX003 (ip), vehicle: alcohol 97 % of control | dose: 200.0 mg/kg/injection, schedule: Q04DX003 (ip), vehicle: alcohol 112 % of control | dose: 400.0 mg/kg/injection, schedule: Q04DX003 (ip), vehicle: alcohol 94 % of control

CCOC(=O)C(C(=O)OCC)=C(C)C
inactive: dose: 21.3 mg/kg/injection, schedule: Q01DX009 (ip), vehicle: saline with Tween-80 93 % of control | dose: 42.5 mg/kg/injection, schedule: Q01DX009 (ip), vehicle: saline with Tween-80 90 % of control | dose: 85.0 mg/kg/injection, schedule: Q01DX009 (ip), vehicle: saline with Tween-80 91 % of control | dose: 170.0 mg/kg/injection, schedule: Q01DX009 (ip), vehicle: saline with Tween-80 93 % of control | dose: 177.0 mg/kg/injection, schedule: Q01DX009 (ip), vehicle: saline with Tween-80 123 % of control | dose: 400.0 mg/kg/injection, schedule: Q01DX009 (ip), vehicle: saline with Tween-80 120 % of control

CCCNC(=O)OCc1cnc2ccc(OC)cc2c1COC(=O)NCCC
inactive: [4] 96 % of control | [5] 96 % of control | [6] 93 % of control

CCOC(=O)c1ccc(NC(=O)Nc2ccc(Nc3ccccc3)cc2)cc1
inactive: dose: 60.0 mg/kg/injection, schedule: Q01DX005 (ip), vehicle: Klucel (hydroxypropylcellulose) (HPC) 95 % of control | dose: 120.0 mg/kg/injection, schedule: Q01DX005 (ip), vehicle: Klucel (hydroxypropylcellulose) (HPC) 92 % of control | dose: 240.0 mg/kg/injection, schedule: Q01DX005 (ip), vehicle: Klucel (hydroxypropylcellulose) (HPC) 88 % of control

CCOC1N(c2ccccc2)CN(C2CCCCC2)CC1(C)C (stereo not drawn)
inactive: [7] 100 % of control | [8] 98 % of control | [9] 102 % of control

NCCSCC(N)C(=O)O (stereo not drawn)
inactive: [2] 102 % of control | [3] 103 % of control | dose: 100.0 mg/kg/injection, schedule: Q01DX009 (ip), vehicle: saline 99 % of control | dose: 200.0 mg/kg/injection, schedule: Q01DX009 (ip), vehicle: saline 109 % of control

CCOc1c(Cl)cc(Cl)cc1C(c1ccccc1S(=O)(=O)O)c1cc(Cl)cc(Cl)c1OCC
inactive: [7] 100 % of control | [8] 91 % of control

COc1cc2c(c(OC)c1OC)-c1c(cc3c(c1OC)OCO3)C1OC2C(C)C1C (stereo not drawn) (tested in a mixture with another compound)
inactive: [10] 100 % of control | [4] 97 % of control | [5] 100 % of control and 101 % of control | [6] 103 % of control and 106 % of control | dose: 400.0 mg/kg/injection, schedule: Q01DX005 (ip), vehicle: Klucel (hydroxypropylcellulose) (HPC) 99 % of control

O=C1C2CCc3cnn(-c4ccccc4)c3C2C(=O)N1c1ccccc1 (stereo not drawn)
inactive: [11] 101 % of control | [12] 99 % of control | [13] 94 % of control

CCN(CC)CCSc1c2ccccc2nc2ccccc12
inactive: dose: 3.75 mg/kg/injection, schedule: Q01DX005 (ip), vehicle: saline with Tween-80 110 % of control | dose: 7.5 mg/kg/injection, schedule: Q01DX005 (ip), vehicle: saline with Tween-80 114 % of control | dose: 15.0 mg/kg/injection, schedule: Q01DX005 (ip), vehicle: saline with Tween-80 107 % of control

C=CCC1C/C=C\COC(=O)CC(C)(C)CC1=O (stereo not drawn)
inactive: dose: 25.0 mg/kg/injection, schedule: Q04DX003 (ip), vehicle: saline 100 % of control | dose: 50.0 mg/kg/injection, schedule: Q04DX003 (ip), vehicle: saline 102 % of control | [14] 102 % of control | [15] 99 % of control

COc1ccccc1OCC(Cn1c(=O)nc(-c2ccccc2)c2cc(Cl)ccc21)OC(N)=O (stereo not drawn)
inactive: [11] 104 % of control | [12] 100 % of control | [13] 95 % of control

O=c1ccccc(Br)c1O
inactive: [10] 100 % of control | [4] 106 % of control | [5] 106 % of control

Cc1cc(=O)oc2cc(OC(=O)Nc3ccc(Cl)c(Cl)c3)ccc12
inactive: dose: 3.12 mg/kg/injection, schedule: Q01DX009 (ip), vehicle: saline 101 % of control | dose: 6.25 mg/kg/injection, schedule: Q01DX009 (ip), vehicle: saline 100 % of control | [1] 101 % of control and 90 % of control

COC(=O)C1(c2ccccc2)N=C(c2ccc(C)cc2)ON1c1ccccc1 (stereo not drawn)
inactive: [16] 107 % of control | [17] 95 % of control | [18] 92 % of control

C=C(CC(=O)O)C(=O)O (tested in a mixture with another compound)
inactive: [1] 100 % of control | [2] 100 % of control | [3] 100 % of control

COc1ccc(-n2c(N)c(C#N)c3c(c2=S)CCC3)cc1
inactive: dose: 50.0 mg/kg/injection, schedule: Q01DX005 (ip), vehicle: Klucel + Tween-80 106 % of control | dose: 100.0 mg/kg/injection, schedule: Q01DX005 (ip), vehicle: Klucel + Tween-80 99 % of control | dose: 200.0 mg/kg/injection, schedule: Q01DX005 (ip), vehicle: Klucel + Tween-80 92 % of control

CCCCCCCCCCCCCCCC[N+](C)(C)CC(=O)O
inactive: [8] 104 % of control | [9] 86 % of control | dose: 50.0 mg/kg/injection, schedule: Q01DX009 (ip), vehicle: saline with Tween-80 105 % of control

COc1ccc(NCS(=O)(=O)O)cc1
inactive: [14] 100 % of control | dose: 200.0 mg/kg/injection, schedule: Q04DX003 (ip), vehicle: saline 108 % of control | [15] 104 % of control

CC1C=C(COC(=O)Nc2ccccc2)ON1c1ccccc1 (stereo not drawn)
inactive: dose: 100.0 mg/kg/injection, schedule: Q01DX001 (ip), vehicle: Klucel (hydroxypropylcellulose) (HPC) 108 % of control | dose: 200.0 mg/kg/injection, schedule: Q01DX001 (ip), vehicle: Klucel (hydroxypropylcellulose) (HPC) 97 % of control | dose: 400.0 mg/kg/injection, schedule: Q01DX001 (ip), vehicle: Klucel (hydroxypropylcellulose) (HPC) 100 % of control

O=c1[nH]c2cc(Cl)ccc2nc1/C=C(\O)c1ccco1
inactive: [16] 102 % of control | [17] 94 % of control | [18] 102 % of control

CCC12CCC(=O)C=C1CCCC2=O (stereo not drawn)
inactive: dose: 25.0 mg/kg/injection, schedule: Q01DX009 (ip), vehicle: saline sonified 104 % of control | dose: 50.0 mg/kg/injection, schedule: Q01DX009 (ip), vehicle: saline sonified 86 % of control | dose: 100.0 mg/kg/injection, schedule: Q01DX009 (ip), vehicle: saline sonified 109 % of control
